The values that follow are results of earlier work, collected in patent publication US8980933B2, “Combretastatin analogs for use in the treatment of cancer” (Universitat Bayreuth, priority 2010, dated 2015).

Structures are written as SMILES.

For the data set the following is noted: Bedford et al., Bioorg. Med. Chem. Lett. 1996; cited from earlier work.

Regarding `COc1ccc(/C=C\c2cc(OC)c(OC)c(OC)c2)cc1OP(=O)(O)O` [combretastatin A-4-phosphate], the solubility in water result is on record as “about 5 mg/mL”.
